Legend:
[1] = test system: rat primary tracheal smooth muscle cells; test: Cytosolic calcium imaging in rat tracheal smooth muscle cells; assay type: cell-based
Method: Rat trachea were isolated as described above, except that a guillotine was used for sacrifice instead of cervical dislocation. The dorsal muscle layer was removed from the hyaline cartilage rings and minced into ~1-mm fragments in Ca^2+-free HEPES-buffered Krebs solution (140 mM NaCl, 4.7 mM KCl, 1.13 mM MgCl2, 10 mM HEPES, 10 mM glucose, pH 7.3). The tracheal smooth muscle (TSM) fragments were digested with 2.5 U/ml papain (MP Biomedicals) with 1 mg/ml BSA fraction V and 1 mg/ml dithiothreitol at 37°C on a rocking platform (250 rotations/min) for 20 min. After washing once with the Ca^2+-free Krebs solution the TSM fragments were digested with 12.5 U/ml of type VII collagenase (Sigma Chemical) for 10 min on a rocking platform at 37°C, washed and centrifuged (750 G for two min.) three times in Ca^2+-free Krebs-BSA solution and gently triturated up to 5 min to disburse single tracheal myocytes. TSM cells were stored on ice in Ca^2+-free Krebs-BSA solution and used the same day.
TSM cells were placed on a coverslip in a 1 ml perfusion chamber on an inverted microscope and incubated with 20 μM Cal-520 AM dye (AAT Bioquest, Sunnyvale, California, USA) in 0.2% Pluronic F-127 and 1 mM probenecid in HBSS at room temperature for 30 min. The chamber was fitted with a top adaptor and coverslip (Warner Instruments, RC37WC) to establish a closed perfusion chamber. […]

M5 muscarinic receptor = target: T1, M5 muscarinic receptor (Homo sapiens, UniProt P08912); test: R-CEPIAer ER calcium assay, CHO cells transiently transfected with M5 receptor; assay type: cell-based
T1 construct: expressed in transfected cells; host or cells: CHO cells, transiently co-transfected with pCMV R-CEPIAer
T1 sequence (P08912 1-532): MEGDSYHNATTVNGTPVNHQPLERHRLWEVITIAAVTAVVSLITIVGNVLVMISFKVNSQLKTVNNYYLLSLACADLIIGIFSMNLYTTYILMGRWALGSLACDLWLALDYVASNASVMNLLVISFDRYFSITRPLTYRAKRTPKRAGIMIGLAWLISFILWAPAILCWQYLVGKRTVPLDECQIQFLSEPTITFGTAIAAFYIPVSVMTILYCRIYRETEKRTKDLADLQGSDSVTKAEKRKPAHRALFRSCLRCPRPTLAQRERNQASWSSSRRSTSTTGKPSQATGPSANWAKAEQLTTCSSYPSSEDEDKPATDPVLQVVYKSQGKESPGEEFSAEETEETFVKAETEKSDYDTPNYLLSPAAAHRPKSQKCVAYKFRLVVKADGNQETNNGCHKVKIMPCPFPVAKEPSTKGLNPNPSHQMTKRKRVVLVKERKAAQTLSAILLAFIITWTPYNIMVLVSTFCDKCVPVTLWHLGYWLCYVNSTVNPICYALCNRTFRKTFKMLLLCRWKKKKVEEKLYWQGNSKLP
Method: [Worded in the source for another target; used here, by the source, with some conditions changed.] The binding of antagonists to Gq-coupled receptors was determined by measuring IP3-mediated calcium depletion from the endoplasmic reticulum (ER). This was accomplished using CHO-K1 cells stably transfected with human M3 muscarinic acetylcholine receptor (CEM3000000, cDNA Resource Center, Bloomsburg University) and R-CEPIAer, a low affinity ER-targeted calcium indicator fluorescent protein ([Suzuki et al., 2014]). R-CEPIAer reporting of ER calcium concentration was assessed using 564 nm excitation light (>590 long-pass emission) at 20 second intervals on a Nikon swept-field confocal microscope using slit-scan mode, 2x2 Binning, and 100 millisecond frames. F/Fmax was fluorescence intensity normalized to maximal fluorescence intensity during the experiment. The response of cells to Gq-coupled receptor agonist were measured as the change in F/Fmax (ΔF/Fmax) from preagonist value to fluorescence minimum during agonist application (that occurs by IP3-mediated ER calcium depletion). […] Perfusion of each agonist application was for 2 min, while the antagonist overlapped and preceded the second agonist application by 3 min. […] IC50 was calculated by assaying fractional inhibition using a dose-response of antagonist concentrations (i.e. Figure 1D ). […]

mouse trachea = test: Isometric tracheal tension measurement (organ bath)
Method: Mice used in these studies were BALB/C mice from Jackson Labs. All animal procedures were reviewed and approved by the University of Texas Health Science Center at San Antonio Institutional Animal Care and Use Committee. For tracheal constriction studies, animals were deeply anesthetized with isoflurane and then sacrificed by cervical dislocation. Isometric tracheal contraction measurements were performed as previously described ([Semenov et al., 2012]). Trachea were removed and surrounding tissues dissected in ice-cold physiologic saline solution (PSS) consisting of 119 mM NaCl, 4.7 mM KCl, 2.0 mM CaCl2, 1.0 mM KH2PO4, 1.17 mM MgSO4, 18 mM NaHCO3, 0.026 mM EDTA, 11 mM glucose, and 12.5 mM sucrose. Trachea were cut below the pharynx and above the primary bronchus bifurcation. Two metal wires, attached to a force transducer and micrometer (Radnoti, LLC), were threaded into the lumen of the trachea. Trachea were placed into an oxygenated organ bath (95% O2, 5% CO2), at 37°C, pH 7.35 (after bubbling with 95% O2–5% CO2). Tracheal resting tension was readjusted to 1 gram over 1 h and then challenged with 67 mM potassium PSS with NaCl adjusted to 56.7 mM to maintain proper osmolarity (KPS). Trachea were challenged two or more times until reproducible contractile responses were achieved. All subsequent experimental drug responses were normalized to the KPS response. Bladder measurements were conducted in a similar manner as trachea with identical solutions. The bladder was excised and formed into a ring by cutting anterior and posterior portions before mounting on metal wires for force measurements. For the aorta preparation, the ascending thoracic aorta was excised and cut into 2–3 mm sections before mounting on wires for force measurements.

c1cc2cc(c1)C[n+]1ccc(c3ccccc31)NCc1ccc(cc1)CNc1cc[n+](c3ccccc13)C2 [UCL 1684, 6,12,19,20,25,26-Hexahydro-5,27:13,18:21,24-trietheno-11,7-metheno-7H-dibenzo [b,n] [1,5,12,16]tetraazacyclotricosine-5,13-diium dibromide]
Calcium response (integral) to second carbachol relative to first ([1]; 3.5 μM UCL 1684, 0.5 μM carbachol, rat TSMC): 0.42 ± 0.04
activity at 3.5 µM ([1]; Rattus norvegicus, read-out: CCH-evoked cytosolic calcium, % of control): 42%
IC50 (M5 muscarinic receptor): 520 nM
Hill slope of inhibition curve, M5 receptor (M5 muscarinic receptor; 0.5 μM carbachol): 1.4 ± 0.17
Relaxation of precontracted trachea (mouse trachea): near complete relaxation
Relaxation response of trachea, single dose (mouse trachea; 3.5 μM, 0.5 μM carbachol): 95.4 ± 2.4
IC50 (mouse trachea; Mus musculus, read-out: IC50, relaxation of carbachol-precontracted trachea): 430 nM
Reduction of carbachol-evoked ASM contractions (mouse trachea; carbachol-evoked): > 90%
Washout needed to restore tracheal responses to cholinergic agonists (mouse trachea; data not shown): at least an hour of washout

Reference: publication PMC7525093, “Bis-Quinolinium Cyclophane Blockers of SK Potassium Channels Are Antagonists of M3 Muscarinic Acetylcholine Receptors” (Frontiers in Pharmacology, 2020)
